Where two headings read alike, the source gives them in different places.
How the values were obtained:
[1] = target: T1, PNPLA2 (Homo sapiens, UniProt Q96AD5); test: Huh7 PNPLA2 immunofluorescence counter assay (PNPLA2 on lipid droplets); assay type: cell-based; design: immunofluorescence against endogenous PNPLA2 on lipid droplets in Huh7 cells; endogenous in cells; host or cells: Huh7; conditions: for EC50: read-out: EC50 Huh7, PNPLA2 IF
T1 sequence (Q96AD5 1-504): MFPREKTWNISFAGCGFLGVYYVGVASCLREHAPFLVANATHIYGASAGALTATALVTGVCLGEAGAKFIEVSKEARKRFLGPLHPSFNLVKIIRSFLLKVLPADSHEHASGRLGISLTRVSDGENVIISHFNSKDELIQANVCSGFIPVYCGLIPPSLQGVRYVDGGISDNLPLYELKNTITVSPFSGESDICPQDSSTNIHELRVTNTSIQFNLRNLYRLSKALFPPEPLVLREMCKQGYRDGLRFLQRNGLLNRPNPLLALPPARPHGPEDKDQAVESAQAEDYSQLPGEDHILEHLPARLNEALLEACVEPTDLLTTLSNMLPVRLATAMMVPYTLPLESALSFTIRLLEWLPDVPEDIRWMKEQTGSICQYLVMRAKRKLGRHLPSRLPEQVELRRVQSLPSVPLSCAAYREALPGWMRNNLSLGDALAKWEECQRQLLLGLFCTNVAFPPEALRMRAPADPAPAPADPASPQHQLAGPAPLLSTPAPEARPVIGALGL
Method: These efforts led to the identification of NUV-244, a thiazolecarboxamide (Figure 2A).
Cells were fixed with 4% paraformaldehyde for 15 minutes at room temperature. Cells were blocked with 0.2 M glycine, 0.1 mg/mL saponin, and 30 mg/mL bovine serum albumin (BSA) (all Sigma Aldrich) in PBS for 1 hour. Cells were washed 1x with washing buffer (0,1 mg/ml saponin + 1 mg/ml Bovine serum albumin) using a Blue Washer (Blue Cat Bio). Mouse anti-human ADPN (PNPLA3, C-8, #sc-390252, Santa Cruz) and rabbit anti-human PNPLA2 (Sigma Aldrich, #HPA055173-25UL) primary antibodies and appropriate secondary antibodies conjugated with Alexa-Fluor 647 (Jackson ImmunoResearch) were used. All antibodies were diluted in 0.1 mg/ml Saponin + 1 mg/ml Bovine serum albumin. Incubation with primary antibodies was over night at 4°C. Cells were stained simultaneously with the secondary antibody and Hoechst 33342 (final 2 μg/ml, Biotium) for 1h at room temperature in the dark. For Staining of lipid droplets 38 nM BODIPY was used for 30 minutes at room temperature.
Images were acquired by an Opera Phenix confocal spinning disc microscope system (Revvity, Waltham, MA, USA) with a 20x or 40x water objective at 405 nm (Hoechst), 488 nm (BODIPY) and 647 nm. Quantification was carried out with the Harmony (Revvity, Waltham, MA, USA) or MetaXpress software (Molecular Devices). Normalization, quality control, and fitting curves for EC50 determination of tested compounds were performed with Genedata Screener® for high-content screening and Genedata Condoseo modules (Genedata AG, Basel, Switzerland).

[2] = target: T2, PNPLA3 I148M-tagRFP (Homo sapiens, UniProt Q9NST1, I148M); test: Western blot anti-PNPLA3, Huh7 PNPLA3 I148M-tagRFP; assay type: cell-based; conditions: 5µM, 24h
T2 construct: host or cells: Huh7
T2 sequence (Q9NST1 1-481 I148M): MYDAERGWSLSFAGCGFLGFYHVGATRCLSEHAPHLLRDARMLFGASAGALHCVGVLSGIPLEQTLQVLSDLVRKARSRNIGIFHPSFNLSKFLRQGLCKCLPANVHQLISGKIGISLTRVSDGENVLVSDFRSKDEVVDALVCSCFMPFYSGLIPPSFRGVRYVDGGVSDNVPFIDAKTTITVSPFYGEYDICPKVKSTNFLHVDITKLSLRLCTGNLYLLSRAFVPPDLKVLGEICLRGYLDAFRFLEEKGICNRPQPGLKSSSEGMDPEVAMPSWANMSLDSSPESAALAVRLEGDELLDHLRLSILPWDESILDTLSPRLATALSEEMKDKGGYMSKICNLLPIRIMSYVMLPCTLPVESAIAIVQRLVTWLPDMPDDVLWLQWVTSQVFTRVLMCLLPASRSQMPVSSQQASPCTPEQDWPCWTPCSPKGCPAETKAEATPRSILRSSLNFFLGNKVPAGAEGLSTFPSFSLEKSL
Method: For SDS-PAGE and subsequent western blotting cells were harvested in 1x lysis buffer (50 mM Tris-Cl, pH 7.5, 150 mM NaCl, 1 mM EDTA, 1% Triton X-100) supplemented with complete mini protease inhibitor cocktail (Roche). Total protein concentration of samples was determined with a Bicinchoninic Acid (BCA) protein assay. Cell lysates were boiled for 10 min at 99°C with 1x NuPAGE LDS Sample Buffer and loaded onto a 4-12% Tris-Glycine SDS-PAGE gel. For immunoblotting proteins were transferred to a nitrocellulose membrane (0.2 μm pore size, Schleicher & Schuell) and blocked with Intercept (PBS) Blocking buffer (Licor), incubated with primary antibodies anti-PNPLA3 (1:500, C-8 Santa Cruz, SC-390252), anti-PNPLA3 (1:1000, Millipore, MABS2174) and anti-HSP90 (1:1000, Cell Signaling, #4877), and subsequently incubated with secondary antibodies IRDye 680 or IRDye 800 (1:2000; LI-COR Biosciences). Infrared signal was detected using the Odyssey imaging system (Licor). […]
a. Huh7, PNPLA3 I148M b. Huh7, PNPLA3 I148M-tagRFP […]
control NUV-244 control NUV-244
Supplemental Fig. 9: Western Blot NUV-244 a. […] PNPLA3 bands at 53kDa (unmodified in a.) or 80 kDa (PNPLA3 I148M-tagRFP) were quantified (signal above local background, normalized to loading control using LICOR Odyssey CLx / Image Studio) on two independent Western Blots and percent of intensity compared to DMSO controls calculated (Mean +/ - Stdev). […]

effect on PNPLA2 staining on lipid droplets ([1]; 1μM, Huh7): no effect
EC50 ([1]; HTS batch (hit)): > 18 µM
effect on PNPLA2 localization to lipid droplets ([1]; Huh7 cells, dose-response): no effect
EC50 ([1]; resynthesis batch): > 17 µM
EC50 Huh7 PNPLA2 IF (resynthesis) ([1]; resynthesis batch, result in words): no activity
PNPLA3 band intensity printed on the blot shown (DMSO 100%) ([2]; single blot shown in Fig. S9b): 72%
PNPLA3 band, percent of intensity compared to DMSO controls ([2]; two independent Western Blots, Mean +/- Stdev): 46+/-4%
Structure (SMILES): Cc1cccc(Cc2nc(C)c(C(=O)Nc3cc(O)ccc3Cl)s2)c1 [NUV-244]

Source: paper PMC12049818, “Identification of NUV-244 as a PNPLA3 I148M degrading small molecule” (iScience, 2025)
